Where a name gives a salt, the structure may show the parent alone. Where only a bound is given, the exact number is not on record here.

Experiment [1] concerns S. aureus PC1(Meth^S)(lac^+). Briefly: In vitro MIC, agar dilution. The note with it: Staphylococcus aureus, read-out: minimum inhibitory concentration (MIC). It is filed as cell-based. The method, boiled down:
(§1)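 Spots of about 10^4 cfu of log-phase culture were applied, and plates were incubated 16-20 h at 35-36 °C. MIC was the lowest concentration inhibiting growth.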
Background: Agar dilution tests growth on a series of plates holding different concentrations.

For another experiment, the system named is E. faecium VanA(Van^R). As to the kind of experiment: In vitro MIC, agar dilution. The note with it: Enterococcus faecium, read-out: minimum inhibitory concentration (MIC). The class given is cell-based. The method, boiled down:
as §1

The subject of the next experiment is E. faecium ATCC 35667. As to the kind of experiment: In vitro MIC, agar dilution. The note with it: Enterococcus faecium, ATCC35667, read-out: minimum inhibitory concentration (MIC). It is filed as cell-based. The procedure, abridged: as §1
In experiment [2] the test system is S. aureus ATCC 13709(Meth^S). As to the kind of experiment: In vitro MIC, agar dilution. The class given is cell-based. The note with it: Staphylococcus aureus, ATCC13709, S. aureus ATCC 13709(Meth^S); read-out: minimum inhibitory concentration (MIC). The method, boiled down: as §1
The next experiment has as its system S. aureus ATCC 29213. Briefly: In vitro MIC, agar dilution. The class given is cell-based. The note with it: Staphylococcus aureus, ATCC29213, read-out: minimum inhibitory concentration (MIC). The procedure, abridged: as §1
For experiment [3], the system named is S. aureus ATCC 33593(Meth^R). Briefly: In vitro MIC, agar dilution. It is filed as cell-based. The note with it: Staphylococcus aureus, ATCC33593, read-out: minimum inhibitory concentration (MIC). The procedure, abridged: as §1
In experiment [4] the test system is S. haemolyticus 05(Meth^R). Briefly: In vitro MIC, agar dilution. The note with it: Staphylococcus haemolyticus, read-out: minimum inhibitory concentration (MIC). It is filed as cell-based. The procedure, abridged:
as §1

The subject of a further experiment is E. faecium A491(Amp^R). As to the kind of experiment: In vitro MIC, agar dilution. The class given is cell-based. The note with it: Enterococcus faecium, read-out: minimum inhibitory concentration (MIC). The procedure, abridged: as §1
The test system of experiment [5] is S. aureus 76(Meth^R)(lac^+). Briefly: In vitro MIC, agar dilution. The class given is cell-based. The note with it: Staphylococcus aureus, read-out: minimum inhibitory concentration (MIC). The procedure, abridged:
as §1

The subject of experiment [6] is S. aureus Spain #356(Meth^R). As to the kind of experiment: In vitro MIC, agar dilution. The class given is cell-based. The note with it: Staphylococcus aureus, read-out: minimum inhibitory concentration (MIC). The procedure, abridged:
as §1

A further experiment relates to E. faecalis VanB(Van^R). As to the kind of experiment: In vitro MIC, agar dilution. It is filed as cell-based. The note with it: Enterococcus faecalis, read-out: minimum inhibitory concentration (MIC). The procedure, abridged: as §1
A further experiment deals with E. faecalis ATCC 29212. As to the kind of experiment: In vitro MIC, agar dilution. It is filed as cell-based. The note with it: Enterococcus faecalis, ATCC29212, read-out: minimum inhibitory concentration (MIC). The procedure, abridged: as §1
The test system of the next experiment is E. coli ATCC 25992. Briefly: In vitro MIC, agar dilution. The class given is cell-based. The note with it: Escherichia coli, ATCC25992, read-out: minimum inhibitory concentration (MIC). The method, boiled down:
as §1

The test system of another experiment is P. aeruginosa ATCC 27853. Briefly: In vitro MIC, agar dilution. The class given is cell-based. The note with it: Pseudomonas aeruginosa, ATCC27853, read-out: minimum inhibitory concentration (MIC). The method, boiled down: as §1
Experiment [7] relates to S. aureus strain ATCC 13709 (methicillin-susceptible). As to the kind of experiment: Murine model for lethal bacteremic peritonitis. It is filed as in vivo, female Swiss-Webster mice. The note with it: Staphylococcus aureus, ATCC13709, SC, 72 h; for responders at 0.3125 mg/kg / responders at 0.625 mg/kg / responders at 2.5 mg/kg / responders at 5 mg/kg: read-out: Survivors; for responders at 1.25 mg/kg: read-out: Survivors (converted); for ED50: two equal doses, IP challenge, read-out: ED50. The procedure, abridged:
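Female Swiss-Webster mice were challenged IP with an LD100 inoculum in 7% hog gastric mucin, then given test drug subcutaneously in twofold increments (0.01–512 mg/kg) as two equal doses at challenge and 2 h later, 10 mice per group. Survival was scored at 72 h; PD50 (total mg/kg) was derived by probit.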

The test system of experiment [8] is S. aureus Col8A(Meth^S)(lac^-). Briefly: In vitro MIC, agar dilution. The class given is cell-based. The note with it: Staphylococcus aureus; S. aureus Col8A(Meth^S)(lac^-); read-out: minimum inhibitory concentration (MIC). The method, boiled down: (§2)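 Two-fold dilutions (128 to ≤0.25 μg/mL, in duplicate) were poured into Mueller-Hinton agar. Log-phase broth cultures were spot-inoculated at about 10^4 cfu per spot and incubated 35-36°C for 16-20 hours; the MIC was the lowest concentration inhibiting growth. Col is a high-level PBP2a producer; Col 8A is its isogenic PBP2a-lacking partner.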

In experiment [9] the test system is S. aureus Col(Meth^R)(lac^-). Briefly: In vitro MIC, agar dilution. The class given is cell-based. The note with it: Staphylococcus aureus, read-out: minimum inhibitory concentration (MIC). The method, boiled down: as §2

One may read the ED50 as the dose at which the effect has come halfway, by size or by number of responders. Consider `NC(=O)[C@@H](N)CSCc1cnccc1SC1=C(C(=O)O)N2C(=O)[C@@H](NC(=O)/C(=N\O)c3nc(N)sc3Cl)[C@H]2SC1` [Cmpd 59, (7R)-7-[(Z)-2-(2-amino-5-chlorothiazol-4-yl)-2-(hydroxyimino)acetamido]-3-(3-(2R-2-carboxamido-2-aminoethylthiomethyl)pyrid-4-ylthio)-3-cephem-4-carboxylate, trifluoroacetic acid salt], for which the MIC in experiment [1] worked out at 0.5 µg/mL; in the experiment with E. faecium VanA(Van^R) it was 2 µg/mL; with E. faecium ATCC 35667, 1 µg/mL; in experiment [2] it was 0.13 µg/mL; in the experiment with S. aureus ATCC 29213 it was 0.5 µg/mL; in experiment [3], 2 µg/mL. Moreover, the MIC amounted to 4 µg/mL in experiment [4]; 16 µg/mL in the experiment with E. faecium A491(Amp^R); 2 µg/mL in [5]; 4 µg/mL in [6]; 0.5 µg/mL in the experiment with E. faecalis VanB(Van^R); 0.5 µg/mL in the experiment on E. faecalis ATCC 29212. Moreover, the MIC with E. coli ATCC 25992 is 8 µg/mL; with P. aeruginosa ATCC 27853 it was over 32 µg/mL; in experiment [8] it was 0.25 µg/mL; in experiment [9], 2 µg/mL. Further, the responders at 0.3125 mg/kg in [7] was 40%. In experiment [7], the responders at 0.625 mg/kg was 60%. The responders at 1.25 mg/kg in experiment [7] was 40%. Moreover, in experiment [7], the responders at 2.5 mg/kg was found to be 40%. In experiment [7], the responders at 5 mg/kg is 100%. Besides, the 50% effective dose (ED50) in [7] was 0.81 mg/kg.

For `NCC(O)CSCc1cnccc1SC1=C(C(=O)O)N2C(=O)[C@@H](NC(=O)/C(=N\O)c3nc(N)sc3Cl)[C@H]2SC1` (stereo partly drawn) [Cmpd 32, (7R)-7-[(Z)-2-(2-amino-5-chlorothiazol-4-yl)-2-(hydroxyimino)acetamido]-3-[3-(3-amino-2-hydroxyprop-1-ylthiomethyl)pyrid-4-ylthio]-3-cephem-4-carboxylate, trifluoroacetic acid salt], the MIC is 0.5 µg/mL in [1]; 1 µg/mL with E. faecium VanA(Van^R); 0.5 µg/mL with E. faecium ATCC 35667; 0.13 µg/mL in experiment [2]; 0.25 µg/mL in the experiment with S. aureus ATCC 29213; 2 µg/mL in experiment [3]. In addition, the MIC in experiment [4] is 4 µg/mL; with E. faecium A491(Amp^R), 8 µg/mL; in experiment [5], 2 µg/mL; in experiment [6] it was 2 µg/mL; in the experiment on E. faecalis VanB(Van^R), 0.13 µg/mL; in the experiment on E. faecalis ATCC 29212 it was at most 0.06 µg/mL. Moreover, the MIC with E. coli ATCC 25992 was 8 µg/mL; in the experiment on P. aeruginosa ATCC 27853, over 32 µg/mL; in [8], 0.25 µg/mL; in experiment [9], 1 µg/mL. Moreover, the responders at 0.3125 mg/kg in [7] came to 0%. For the same compound, in experiment [7], the responders at 0.625 mg/kg was 10%. Further, the responders at 1.25 mg/kg in [7] is 50%. Moreover, the responders at 2.5 mg/kg in experiment [7] was found to be 50%. Also, in [7], the responders at 5 mg/kg turned out to be 80%. The median effective dose (ED50) in experiment [7] worked out at 2 mg/kg.

In the case of `Nc1nc(/C(=N/O)C(=O)N[C@@H]2C(=O)N3C(C(=O)O)=C(Sc4ccncc4SCCNC=O)CS[C@H]23)c(Cl)s1` [Cmpd 64, (7R)-7-[(Z)-2-(2-amino-5-chlorothiazol-4-yl)-2-(hydroxyimino)acetamido]-3-(3-(N-formylaminoethylthio)pyrid-4-ylthio)-3-cephem-4-carboxylate, trifluoroacetic acid salt], the MIC in [1] turned out to be 0.5 µg/mL; in the experiment with E. faecium VanA(Van^R), 2 µg/mL; in the experiment with E. faecium ATCC 35667 it was 1 µg/mL; in experiment [2], 0.25 µg/mL; with S. aureus ATCC 29213, 0.25 µg/mL; in [3] it was 2 µg/mL. Also, the MIC turned out to be 4 µg/mL in [4]; 16 µg/mL with E. faecium A491(Amp^R); 4 µg/mL in experiment [5]; 4 µg/mL in experiment [6]; 0.5 µg/mL in the experiment with E. faecalis VanB(Van^R); 0.25 µg/mL in the experiment with E. faecalis ATCC 29212. In addition, the MIC with E. coli ATCC 25992 is 8 µg/mL; in the experiment with P. aeruginosa ATCC 27853 it was over 32 µg/mL; in [8], 0.25 µg/mL; in [9], 2 µg/mL. Moreover, the responders at 0.3125 mg/kg in experiment [7] came to 10%. Also, the responders at 0.625 mg/kg in [7] was 10%. Moreover, in [7], the responders at 1.25 mg/kg was 40%. Moreover, in experiment [7], the responders at 2.5 mg/kg worked out at 40%. In experiment [7], the responders at 5 mg/kg came out at 80%. Besides, the ED50 in [7] stood at 2.27 mg/kg.

For `NCCCSCc1cnccc1SC1=C(C(=O)O)N2C(=O)[C@@H](NC(=O)/C(=N\O)c3nc(N)sc3Cl)[C@H]2SC1` [Cmpd 27, (7R)-7-[(Z)-2-(2-amino-5-chlorothiazol-4-yl)-2-(hydroxyimino)acetamido]-3-[3-(3-aminopropyl)thiomethylpyrid-4-ylthio]-3-cephem-4-carboxylate, trifluoroacetic acid salt], the MIC was 0.25 µg/mL in [1]; 0.5 µg/mL in the experiment with E. faecium VanA(Van^R); 0.25 µg/mL with E. faecium ATCC 35667; 0.13 µg/mL in experiment [2]; 0.25 µg/mL in the experiment with S. aureus ATCC 29213; 1 µg/mL in experiment [3]. The MIC in experiment [4] was 2 µg/mL; in the experiment on E. faecium A491(Amp^R), 4 µg/mL; in experiment [5], 1 µg/mL; in experiment [6], 1 µg/mL; in the experiment with E. faecalis VanB(Van^R) it was at most 0.06 µg/mL; with E. faecalis ATCC 29212, at most 0.06 µg/mL. Besides, the MIC came out at 8 µg/mL with E. coli ATCC 25992, 32 µg/mL with P. aeruginosa ATCC 27853, 0.13 µg/mL in [8] and 0.5 µg/mL in [9]. In addition, the responders at 0.3125 mg/kg in experiment [7] was 0%. In addition, the responders at 0.625 mg/kg in [7] stood at 0%. Besides, in [7], the responders at 1.25 mg/kg was 20%. Also, the responders at 2.5 mg/kg in experiment [7] is 60%. The responders at 5 mg/kg in experiment [7] amounted to 70%. For the same compound, the ED50 in experiment [7] is 2.64 mg/kg.

With `NCCSc1cnccc1SC1=C(C(=O)O)N2C(=O)[C@@H](NC(=O)/C(=N\O)c3nc(N)sc3Cl)[C@H]2SC1` [Cmpd 30, (7R)-7-[(Z)-2-(2-amino-5-chlorothiazol-4-yl)-2-(hydroxyimino)acetamido]-3-(3-aminoethylthiopyrid-4-ylthio)-3-cephem-4-carboxylate, trifluoroacetic acid salt], the MIC in experiment [1] was at most 0.25 µg/mL; in the experiment with E. faecium VanA(Van^R), 1 µg/mL; in the experiment with E. faecium ATCC 35667, 0.5 µg/mL; in experiment [2] it was at most 0.25 µg/mL; in the experiment on S. aureus ATCC 29213, 0.25 µg/mL; in experiment [3], 1 µg/mL. Besides, the MIC in [4] was 1 µg/mL; in the experiment with E. faecium A491(Amp^R) it was 8 µg/mL; in experiment [5] it was 2 µg/mL; in [6] it was 1 µg/mL; in the experiment on E. faecalis VanB(Van^R), at most 0.06 µg/mL; in the experiment with E. faecalis ATCC 29212 it was at most 0.06 µg/mL. For the same compound, the MIC in the experiment on E. coli ATCC 25992 was 8 µg/mL; with P. aeruginosa ATCC 27853 it was over 32 µg/mL; in experiment [8] it was 0.13 µg/mL; in experiment [9] it was 0.5 µg/mL. Further, the responders at 0.3125 mg/kg in experiment [7] worked out at 0%. In [7], the responders at 0.625 mg/kg came out at 20%. Moreover, the responders at 1.25 mg/kg in [7] is 40%. Moreover, the responders at 2.5 mg/kg in experiment [7] is 100%. Besides, in [7], the responders at 5 mg/kg was 100%. Besides, the ED50 in experiment [7] was found to be 1.14 mg/kg.
